The term viability denotes a read-out of living cells in per cent, often relative to untreated cells. Higher therefore signals less harm to the cells.

Experimental findings from patent US20030045485A1, “P53-MEDIATED APOPTOSIS FOR THE THERAPEUTIC TREATMENT OF DISEASES” (priority 1993, published 2003) are described below.

A short description of data set [1]: Viability of G1-arrested p53tsneo clones (mimosine growth arrest). Format: cell-based. Particulars: mouse, clones C9, C2 and C1 (p53tsneo transfected DP16-1 MEL cells); mimosine 300 μM, late G1 arrest at 37.5° C., after 3-4 days of arrest. Here is the method:
(§1) The relationship of p53 induced cell death to the cell cycle was studied in transfected clone C9. Clone C9 cells were synchronized in G0/G1 by density arrest (typically at a concentration of 1-2×10^6 cells/ml) for 48-72 hours at 37.5° C. Cells were stimulated to begin cycling by replating into fresh media at a 1:10 split ratio. Growth arrest with mimosine (Sigma) was accomplished by the addition of 300 μM mimosine to logarithmically growing cells for a period of 24 hours.
(§2) To rule out that G1 arrest alone induces cell death, clones C9, C2 and C1 were growth arrested with either mimosine (300 μM) (Watson et al., Cytometry 12:242 (1991)) or isoleucine deprivation (Heintz et al., Proc. Natl. Acad. Sci. USA 79:4083 (1982)) at 37.5° C., both of which result in late Gi arrest.

For data set [2], the system named is clones C9, C2 and C1 (p53^tsneo transfected DP16-1 MEL cells). Described as above. The format is cell-based. Particulars: mouse, 36 h, 300 μM. How it is done: as §1, §2
For data set [3], the system named is CML cells in bone marrow cell culture. Briefly: Purging CML cells from low density mononuclear bone marrow cells with antisense myb. Format: cell-based. Particulars: 40 μg/ml, culture changed two times a day for 1-to-three days, after MIP-1α 300 μg/ml for 24 hours. The text has this:
The most successful purging of bone marrow cells includes from one-to-three non-overlapping techniques. CML cells display antigens which are not present on the hematopoietic stem cells. A large majority of the CML cells that contaminant Marrow samples can initially be removed using antibodies that recognize these CML-specific antigens. Antibodies that can be used include specificities directed to one or more of the following antigens: CD15, CD33, Glycophorin A, CD10, CD2, CD4 and CD8. Antibody-cell conjugates can be removed by either flow cytometry, immuno-magnetic beads or compliment, for example. The remaining CML cells can be killed by incubating the enriched culture in the presence of c-myb antisense oligonucleotides.
Briefly, mononuclear cells will be isolated from a 5 ml bone marrow aspirate by centrifuging through a ficol-hypaque density gradient. The isolated bone marrow cells (1×10^5 CD34+ progenitor cells) are then cultured in Dexter medium with IL3, SGF and EPO and macrophage inflammatory factor (MIP-1α; 300 μg/ml) for 24 hours and then are cultured in medium containing c-myb antisense oligonucleotides. MIP-1α arrests normal hematopoietic cells in G0 and these cells will therefore be resistant to c-myb antisense. The CML cells, however, are unresponsive to MIP-1α and will continue to cycle. […]

Data set [4] concerns p53^tsneo/pMbm1-dhfr co-transfectants (DP16-1 MEL cells). Briefly: Viability of amplified p53^tsneo/pMbm1-dhfr co-transfectants in 1.6% DMSO. The format is cell-based, mouse. Particulars: amplified c-myb cultures. The source says:
To determine how c-myb and p53 interact during MEL cell growth and differentiation, DP16-1 cells were co-transfected with p53^tsneo and pMbm1-dhfr, which encodes a full-length c-myb cDNA under the control of an SV40 promoter (Clarke, et al., supra). […] (FIG. 9A; panel c, C5a p53^tsneo/c-myb transfected DP16-1 cells; panel d, C5a cells). Instead, these cells proliferated for 2-3 days, and then arrested coincident with an increase in benzidine-positive cells (FIG. 11). Viability decreased only after the majority of cells had differentiated. Increased expression of c-myb was selected for by growing transfected cells in higher concentrations of methotrexate (Clarke et al., supra).

Data set [5] concerns c-myc transfected DP16-1 cells. Briefly: DMSO-induced differentiation of c-myc transfected DP16-1 cells, benzidine staining. Format: cell-based, mouse. Particulars: two days of exposure to medium containing DMSO. The source says: (§3) MEL cell lines invariability contain mutations of the p53 tumor suppressor gene and express either negligible or mutant p53 protein. During MEL differentiation there is a biphasic decline in expression of the c-myc oncogene although enforced expression of c-myc blocks this differentiation. To determine the relationship between mutant p53 and c-myc in cell differentiation, DP16-1 cells (which have deleted both p53 alleles) were transfected with an amplifiable plasmid vector containing a full-length mouse c-myc cDNA with or without plasmid vector containing a mutant p53 cDNA (p53^pro193). The exogenous c-myc cDNA is transcribed in MEL cells and results in increased expression of c-myc mRNA and protein during DMSO-induced differentiation. Extent of differentiation was monitored by benzidine staining (FIGS. 17A and 17B). When MEL cells are exposed to DMSO, differentiation normally occurs over a five day period. In contrast to the parental DP16-1 cells or DP16-1 cells transfected with pSV2LZquad, c-myc transfected DP16-1 cells or underwent accelerated differentiation. […] Furthermore, c-myc transfected DP16-1 cells stopped growing and eventually lost viability when grown in medium containing 1.6% DMSO. Coincident expression of p53^pro193 with c-myc abolished the accelerated DMSO-induced differentiation seen in cells which expressed c-myc alone.

In data set [6] the test system is p53^tsneo transfected DP16-1 cells. Briefly: Viability of p53^tsneo transfectants in media containing 1.6% DMSO. The format is cell-based, mouse. Particulars: 37.5° C., logarithmically growing transfectants. Here is the method:
DP16-1 MEL cells were grown in Dulbecco modified minimal essential medium (DMEM) supplemented with 10% calf serum, 2 mM glutamine, 100 U of penicillin per ml, and 100 μg of […] per ml. DNA transfections were performed by electroporation (Prochownik et al., supra). Transfection mixes consisted of 1×10^7 cells in 400 μl transfection buffer (272 mM sucrose, 7 mM phosphate (pH 7.4), 1 mM MgCl2) with either 10 μg p53^tsneo, or 10 μg pSV-2neo, linearized with Bam HI. Transfected cells were selected in media containing 1 mg/ml geneticin (G418; GIBCO). Single-cell clones were isolated by limiting cell dilution in 96-well microtiter plates. To characterize the consequences of enforced expression of p53 on differentiation, logarithmically growing transfectants were exposed to media containing 1.6% dimethyl sulfoxide (DMSO) and incubated at 37.5° C. Media was changed every other day. Cells underwent growth arrest and subsequently died over a period of 48-96 hours (FIG. 8A; DP16-1 cells, ______, p53^tsneo transfected DP16-1 cells, - - -, and DP16-1 cells co-transfected with c-myb and p53^tsneo, _._._). Viable cells were isolated by centrifugation through Ficoll-paque (Pharmacia). […] This is in contrast to untransfected control DP16-1 cells which, when grown in media containing DMSO, downregulate c-myb mRNA and differentiate while remaining viable (FIG. 8A & 8B). […]

The subject of data set [7] is parental DP16-1 cells. Briefly: DMSO-induced differentiation of parental DP16-1 cells, benzidine staining. Format: cell-based, mouse. Particulars: two days of exposure to medium containing DMSO.
From the text: as §3

The subject of data set [8] is p53^tsneo clones. Briefly: DMSO-induced differentiation of p53^tsneo clones, benzidine staining. Format: cell-based, mouse. Particulars: 5 days exposure to 1.6% DMSO at 37.5° C., viable cells isolated through Ficoll-paque. How it is done: To characterize the consequences of enforced expression of p53 on differentiation, logarithmically growing transfectants were exposed to media containing 1.6% dimethyl sulfoxide (DMSO) and incubated at 37.5° C. Media was changed every other day. Cells underwent growth arrest and subsequently died over a period of 48-96 hours (FIG. 8A; DP16-1 cells, ______, p53^tsneo transfected DP16-1 cells, - - -, and DP16-1 cells co-transfected with c-myb and p53^tsneo, _._._). Viable cells were isolated by centrifugation through Ficoll-paque (Pharmacia). […] This is in contrast to untransfected control DP16-1 cells which, when grown in media containing DMSO, downregulate c-myb mRNA and differentiate while remaining viable (FIG. 8A & 8B). As expected, the p53^ts protein was located in the cytoplasm of the cells growing at 37.5° C. in the absence of DMSO (FIG. 9A, panel a; C4 p53^tsneo DP16-1 cells). […] Thus despite the fact that the cells were grown at 37.5° C., DMSO caused the p53^ts to behave as wild-type p53 tumor suppressor and induced apoptotic cell death. MEL cells can also exit the cell cycle by being stimulated to terminally differentiate. DMSO was used to induce differentiation of p53^tsneo clones at 37.5° C. After 5 days exposure to 1.6% DMSO, viable cells were isolated by centrifugation through Ficoll-paque. […] These cells were placed at 32.5° C. and viability monitored. […]

As for `NC(Cn1ccc(=O)c(O)c1)C(=O)O` (centres unmarked) [mimosine], in data set [1], the viability at 300 μM is roughly 70%. Also, the Viability result in data set [2] is on record as “less than 5%”.

For the compound “c-myb antisense: c-myb antisense oligonucleotide 5′-GTGCCGGGGTCTTCGGGC-3′ (chemistry not given here)”, in data set [3], the “Cells remaining viable in culture” value is “only the normal hematopoietic cells”.

Turning to `C[S+](C)[O-]` [DMSO, dimethyl sulfoxide], the “Time to loss of viability” value in data set [4] lay in the range of 10 to 14 days. Besides, in data set [5], the Cells differentiated is reported as 70-80%. Moreover, the “Period over which cells died after growth arrest” value in data set [6] fell in the range of 48 to 96 h. In data set [7], the Differentiation entry is recorded as “remained largely undifferentiated”. In data set [8], the Benzidine positivity was 70-80%.
